Results: patent US20050112071A1, “Hypoestoxides, derivatives, agonists and crude extracts thereof for use in cosmetic compositions” (PARAQUEST, INC., priority 2003, published 2005)

Test system: subjects with psoriasis
Experiment: erythema resolution in psoriasis plaques after topical administration
Format: in vivo, human
Conditions: 0.5% by weight in cosmetic composition, topical twice daily for one week; two subjects, elbows; observed day 7
Procedure: In another method, an effective amount of hypoestoxide crude extract, hypoestes rosea dried leaf powder or a compound of formula I, in a cosmetic composition or in isolation, is applied to the host's skin to alleviate psoriasis. In a preferred embodiment, 0.5% by weight of pure hypoestoxide in a cosmetic composition was applied to two subjects with psoriasis. Topical administration was performed twice daily for one week at the subjects' job sites. Subjects had crusted erythematous plaques on their elbows. The cosmetic composition consisted of the following ingredients: multi-fruit complex, cetearyl alcohol and ceteareth 20, glyceryl stearate, cetyl alcohol, tocopherol, vitamin A palmatate, allantoin, lanolin, ascorbic acid, botanical extract, xanthan gum, ceteth-20 and propylparaben. Erythema resolution was noted by observation of the subjects' plaques on day 7.

C=C1C(=O)C[C@H]2C[C@@H]3O[C@@]3(C)CC[C@@H]3O[C@@]3(C)C[C@@H](OC(C)=O)[C@H]1C2(C)C [hypoestoxide]
Erythema resolution of crusted erythematous plaques: significant erythema resolution
